Nine compounds from patent publication US20260327191A1, “GSK3a INHIBITORS AND METHODS OF USE THEREOF” (Blueprint Medicines Corporation, priority 2023, published 2026) can be followed below.

Structures are written as SMILES. Where a name gives a salt, the structure may show the parent alone.

Experiment [1] deals with T1, GSK3B (Homo sapiens, UniProt P49841). Briefly: In vitro enzymatic activity assay, GSK3β. The experiment is classed as biochemical. The arrangement: Full length human GSK3α or GSK3B expressed as N-terminal GST fusion proteins; GST (N); purchased Carna Biosciences (Japan); host or cells: baculovirus host. The settings on record: 1.0 mM ATP, 1.0 μM peptide substrate, 120 min, 25° C, read-out: Enzyme GSK3β (IC50).

A further experiment has as its target T2, GSK3A (Homo sapiens, UniProt P49840).
T2 construct: expressed in transfected cells
In words: NanoBRET cellular target engagement assay, Nanoluc-GSK3A in HEK293 cells. The experiment is classed as cell-based. The following applies: NanoBRET GSK3α IC50, HEK293 cells, tracer K-8, 2 hours, 37° C.

In the next experiment the target is T3, human GSK3α (Homo sapiens, UniProt P49840).
T3 construct: Full length human GSK3α or GSK3B expressed as N-terminal GST fusion proteins; GST (N); purchased Carna Biosciences (Japan); host or cells: baculovirus host
Briefly: In vitro enzymatic activity assay, GSK3α. The experiment is classed as biochemical. The following applies: 1.0 mM ATP, 1.0 μM peptide substrate, 120 min, 25° C, read-out: Enzyme GSK3α (IC50).

The target in experiment [2] is T1, GSK3B. Briefly: NanoBRET cellular target engagement assay, Nanoluc-GSK3B in HEK293 cells. The class given is cell-based. The arrangement: expressed in transfected cells. The following applies: NanoBRET GSK3β IC50, HEK293 cells, tracer K-8, 2 hours, 37° C.

T1 sequence (P49841 whole entry, the tested form may be a part): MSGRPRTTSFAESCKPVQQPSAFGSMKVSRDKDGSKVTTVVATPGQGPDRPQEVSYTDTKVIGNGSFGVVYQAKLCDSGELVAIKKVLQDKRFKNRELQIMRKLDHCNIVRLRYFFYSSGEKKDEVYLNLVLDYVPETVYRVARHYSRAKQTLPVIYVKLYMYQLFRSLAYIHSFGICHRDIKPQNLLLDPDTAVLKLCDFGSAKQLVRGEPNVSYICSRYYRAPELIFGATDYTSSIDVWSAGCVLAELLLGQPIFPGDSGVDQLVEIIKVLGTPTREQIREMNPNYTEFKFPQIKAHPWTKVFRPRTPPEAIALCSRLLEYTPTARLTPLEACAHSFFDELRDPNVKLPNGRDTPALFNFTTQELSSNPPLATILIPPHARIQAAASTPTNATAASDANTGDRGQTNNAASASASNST
T3 sequence (P49840 whole entry, the tested form may be a part): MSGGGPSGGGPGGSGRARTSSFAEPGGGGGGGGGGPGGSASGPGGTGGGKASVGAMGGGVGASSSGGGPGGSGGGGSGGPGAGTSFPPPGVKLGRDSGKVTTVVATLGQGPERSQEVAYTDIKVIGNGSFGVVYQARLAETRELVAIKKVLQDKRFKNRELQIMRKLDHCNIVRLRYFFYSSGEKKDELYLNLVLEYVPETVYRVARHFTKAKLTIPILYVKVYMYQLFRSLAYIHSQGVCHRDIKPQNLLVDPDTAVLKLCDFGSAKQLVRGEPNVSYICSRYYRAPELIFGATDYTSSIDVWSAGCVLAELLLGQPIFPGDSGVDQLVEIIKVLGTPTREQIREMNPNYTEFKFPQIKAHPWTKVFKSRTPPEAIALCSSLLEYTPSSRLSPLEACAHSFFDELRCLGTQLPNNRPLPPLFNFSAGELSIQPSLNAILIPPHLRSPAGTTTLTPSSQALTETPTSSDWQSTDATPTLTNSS
T2 sequence (P49840 whole entry): as the sequence (P49840 whole entry, the tested form may be a part) above

In the case of `CCOCc1cc(C)c(-n2cnc(N)c(C(=O)Nc3cncc([C@H]4CCCCN4)c3)c2=O)c(C)c1` [Example 131, (R)-4-amino-1-(4-(ethoxymethyl)-2,6-dimethylphenyl)-6-oxo-N-(5-(piperidin-2-yl)pyridin-3-yl)-1,6-dihydropyrimidine-5-carboxamide], the IC50 was 202 nM on GSK3B [1], 2.3 nM on GSK3A, 4.9 nM on human GSK3α and 159 nM on GSK3B [2].
Turning to `CCOc1cc(Cl)c(-n2cnc(N)c(C(=O)Nc3cncc([C@@H]4CCCCN4)c3)c2=O)c(Cl)c1` [Example 133, (S)-4-amino-1-(2,6-dichloro-4-ethoxyphenyl)-6-oxo-N-(5-(piperidin-2-yl)pyridin-3-yl)-1,6-dihydropyrimidine-5-carboxamide], the IC50 at GSK3B [1] stood at 508 nM; on GSK3A, 6.1 nM; on human GSK3α, 9.7 nM; against GSK3B [2] it was 350 nM.
On to `Cc1cc(C)c(-n2cnc(N)c(C(=O)Nc3cncc([C@H]4CCCCN4)c3)c2=O)c(C)c1` [Example 145, (R)-4-amino-1-mesityl-6-oxo-N-(5-(piperidin-2-yl)pyridin-3-yl)-1,6-dihydropyrimidine-5-carboxamide], for which the IC50 at GSK3B [1] was determined as 129 nM; on GSK3A, 1 nM; on human GSK3α, 3 nM; on GSK3B [2] it was 96.2 nM.
Consider `Nc1ncn(-c2c(Cl)cc(F)cc2Cl)c(=O)c1C(=O)Nc1cncc([C@@H]2CCCN2)c1` [Example 149, (S)-4-amino-1-(2,6-dichloro-4-fluorophenyl)-6-oxo-N-(5-(pyrrolidin-2-yl)pyridin-3-yl)-1,6-dihydropyrimidine-5-carboxamide], for which the IC50 on GSK3B [1] was found to be 552 nM; against GSK3A, 8.6 nM; at human GSK3α it was 13.4 nM; against GSK3B [2], 519 nM.
As for `Nc1ncn(-c2c(Cl)cncc2Cl)c(=O)c1C(=O)Nc1cncc([C@H]2CCCCN2)c1` [Example 152, (R)-4-amino-1-(3,5-dichloropyridin-4-yl)-6-oxo-N-(5-(piperidin-2-yl)pyridin-3-yl)-1,6-dihydropyrimidine-5-carboxamide], the IC50 was 120 nM at GSK3B [1], 2.4 nM on GSK3A, 2.7 nM on human GSK3α and 174 nM at GSK3B [2].
Turning to `CCNCc1cncc(NC(=O)c2c(N)ncn(-c3c(C)cc(CC(F)F)cc3C)c2=O)c1` [Example 156, 4-amino-1-(4-(2,2-difluoroethyl)-2,6-dimethylphenyl)-N-(5-((ethylamino)methyl)pyridin-3-yl)-6-oxo-1,6-dihydropyrimidine-5-carboxamide], the IC50 amounted to 1250 nM on GSK3B [1], 8.1 nM on GSK3A, 34.9 nM on human GSK3α and 957 nM on GSK3B [2].
Consider `COCc1cc(C)c(-n2cnc(N)c(C(=O)Nc3cncc(C4(N)CCC4)c3)c2=O)c(C)c1` [Example 157, 4-amino-N-(5-(1-aminocyclobutyl)pyridin-3-yl)-1-(4-(methoxymethyl)-2,6-dimethylphenyl)-6-oxo-1,6-dihydropyrimidine-5-carboxamide], for which the IC50 was 1320 nM on GSK3B [1], 11.3 nM on GSK3A, 32.5 nM at human GSK3α and 1160 nM against GSK3B [2].
With `Cc1cc(CS(C)(=O)=O)cc(C)c1-n1cnc(N)c(C(=O)Nc2cncc([C@H]3CCCCN3)c2)c1=O` [Example 158, (R)-4-amino-1-(2,6-dimethyl-4-((methylsulfonyl)methyl)phenyl)-6-oxo-N-(5-(piperidin-2-yl)pyridin-3-yl)-1,6-dihydropyrimidine-5-carboxamide], the IC50 on GSK3B [1] amounted to 355 nM; against GSK3A, 37.3 nM; at human GSK3α, 9.3 nM; against GSK3B [2], 532 nM.
In the case of `Cc1cc(F)cc(C)c1-n1cnc(N)c(C(=O)Nc2cncc([C@H]3CCCCN3)c2)c1=O` [Example 161, (R)-4-amino-1-(4-fluoro-2,6-dimethylphenyl)-6-oxo-N-(5-(piperidin-2-yl)pyridin-3-yl)-1,6-dihydropyrimidine-5-carboxamide trifluoroacetate], the IC50 came out at 379 nM at GSK3B [1], 3 nM at GSK3A, 7.2 nM on human GSK3α and 287 nM at GSK3B [2].
